From the supplement of paper PMC10307832

Tests used:
Assay in all cases: relative viability (nuclei count vs DMSO), 5 days (fraction); higher = more cells survive
[1] = compound: C1COCCN1C2=NC(=NC3=C2OC4=C3C=CC=N4)C5=CC(=CC=C5)NC(=O)C6=CN=C(C=C6)N + C[C@]1(O)C[C@@H](c2nc(-c3ccc4ccc(-c5ccccc5)nc4c3)c3c(N)nccn32)C1 [Linsitinib] (partner 1 µM)
In short: (§1)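 Each reported value is a median over duplicate plates. It expresses relative viability: treated-well nuclei count divided by vehicle-well nuclei count. Lung cancer cell lines in 1536-well plates were dosed by pin tool a day after seeding, alone with one drug or with a fixed anchor-drug dose plus five library-drug doses (not always all listed) in √10 steps, and nuclei were counted after 5 days.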

SGI-1776 + Navitoclax = compound: CN1CCC(CNc2ccc3ncc(-c4cccc(OC(F)(F)F)c4)n3n2)CC1 [SGI-1776] + CC1(C)CCC(c2ccc(Cl)cc2)=C(CN2CCN(c3ccc(C(=O)NS(=O)(=O)c4ccc(N[C@H](CCN5CCOCC5)CSc5ccccc5)c(S(=O)(=O)C(F)(F)F)c4)cc3)CC2)C1 [Navitoclax] (partner 0.5 µM)
In short: as §1

SGI-1776 + OSI-027 = compound: CN1CCC(CNc2ccc3ncc(-c4cccc(OC(F)(F)F)c4)n3n2)CC1 [SGI-1776] + COc1cccc2cc(-c3nc([C@H]4CC[C@H](C(=O)O)CC4)n4ncnc(N)c34)[nH]c12 [OSI-027] (partner 0.5 µM)
In short: as §1

SGI-1776 + Crizotinib = compound: CN1CCC(CNc2ccc3ncc(-c4cccc(OC(F)(F)F)c4)n3n2)CC1 [SGI-1776] + C[C@@H](Oc1cc(-c2cnn(C3CCNCC3)c2)cnc1N)c1c(Cl)ccc(F)c1Cl [Crizotinib] (partner 1 µM)
In short: as §1

## UMC-11
[1]; first compound 0.02 µM
  relative viability: 0.966
[1]; first compound 0.06325 µM
  relative viability: 1.04
[1]; first compound 0.2 µM
  relative viability: 1.11
[1]; first compound 0.6325 µM
  relative viability: 1.34
[1]; first compound 2 µM
  relative viability: 0.666
SGI-1776 + Navitoclax; first compound 0.08 µM
  relative viability: 0.265
SGI-1776 + Navitoclax; first compound 0.8 µM
  relative viability: 0.32
SGI-1776 + Navitoclax; first compound 2.53 µM
  relative viability: 0.275
SGI-1776 + Navitoclax; first compound 8 µM
  relative viability: 0.264
SGI-1776 + OSI-027; first compound 0.08 µM
  relative viability: 0.493
SGI-1776 + OSI-027; first compound 0.8 µM
  relative viability: 0.466
SGI-1776 + OSI-027; first compound 2.53 µM
  relative viability: 0.396
SGI-1776 + OSI-027; first compound 8 µM
  relative viability: 0.278
SGI-1776 + Crizotinib; first compound 0.08 µM
  relative viability: 0.614
SGI-1776 + Crizotinib; first compound 0.8 µM
  relative viability: 0.498
SGI-1776 + Crizotinib; first compound 2.53 µM
  relative viability: 0.665
SGI-1776 + Crizotinib; first compound 8 µM
  relative viability: 0.169
